Measured values: US11337971B2, “Dopamine D3 receptor selective antagonists/partial agonists and uses thereof” (THE UNITED STATES OF AMERICA, AS REPRESENTED BY THE …, priority 2018, dated 2022)
Like-named read-outs stand apart in the source and are kept apart here.

Columns and labels:
human D2R = human D2R (Homo sapiens (Human), UniProt P14416); experiment: Radioligand competition binding, [3H]N-methylspiperone, HEK293 membranes expressing human D2R; conditions: read-out: D2R Ki ± SEM
Protocol: (§1) Binding at dopamine D2-like receptors was determined using previously described methods. […] Upon reaching 80-90% confluence, cells were harvested using pre-mixed Earle's Balanced Salt Solution (EBSS) with […] EDTA (Life Technologies) and centrifuged at 3000 rpm for 10 min at 21° C. The supernatant was removed and the pellet was resuspended in 10 mL hypotonic lysis buffer (5 mM MgCl2.6H2O, 5 mM Tris, pH 7.4 at 4° C.) and centrifuged at 20,000 rpm for 30 min at 4° C. The pellet was then resuspended in fresh EBSS buffer made from 8.7 g/L Earle's Balanced Salts without phenol red (US Biological, Salem, Mass.), 2.2 g/L sodium bicarbonate, pH to 7.4. A Bradford protein assay (Bio-Rad, Hercules, Calif.) was used to determine the protein concentration and membranes were diluted to 500 μg/mL and stored in a −80° C. freezer for later use.
(§2) Radioligand competition binding experiments were conducted using thawed membranes. Test compounds were freshly dissolved in 30% DMSO and 70% H2O to a stock concentration of 100 μM. To assist the solubilization of free-base compounds, 10 μl of glacial acetic acid was added along with the DMSO. Each test compound was then diluted into 13 half-log serial dilutions using 30% DMSO vehicle; final test concentrations ranged from 10 μM to 10 pM. Previously frozen membranes were diluted in fresh EBSS to a 100 μg/mL (for hD2R or hD3R) or 200 μg/mL (hD4R) stock for binding. […] buffer with 0.2 mM sodium metabisulfite, 50 μl of diluted test compound, 100 μl of membranes (10 μg total protein for hD2R or hD3R, 20 μg total protein for hD4R), and 50 μl of [^3H]N-methylspiperone (0.4 nM final concentration; Perkin Elmer). Nonspecific binding was determined using 10 μM butaclamol (Sigma-Aldrich, St. Louis, Mo.) and total binding was determined with 30% DMSO vehicle. All compound dilutions were tested in triplicate and the reaction incubated for one hour at room temperature. The reaction was terminated by filtration through Whatman GF/B filters, presoaked for one hour in 0.5% polyethylenimine, using a Brandel R48 filtering manifold (Brandel Instruments, Gaithersburg, Md.). The filters were washed 3 times with 3 mL of ice cold EBSS buffer and transferred to scintillation vials. […] IC50 values for each compound were determined from dose-response curves and Ki values were calculated using the Cheng-Prusoff equation; these analyses were performed using GraphPad Prism version 5.00 for Windows (GraphPad Software, San Diego, Calif.). Reported Ki values were determined from least three independent experiments.
(§3) The binding affinities of the compounds were evaluated by performing competition binding studies with [^3H]N-methylspiperone using membranes prepared from HEK293 cells expressing either the human D2R or D3R.

human D3R = human D3R (Homo sapiens (Human), UniProt P35462); experiment: Radioligand competition binding, [3H]N-methylspiperone, HEK293 membranes expressing human D3R; conditions: for Ki: read-out: D3R Ki ± SEM; for D2/D3: ratio of Ki values
Protocol: as §1, §2, §3

human D4R = human D4R (Homo sapiens (Human), UniProt P21917); experiment: Radioligand competition binding, [3H]N-methylspiperone, HEK293 membranes expressing human D4R; conditions: Table 1A; for Ki: [3H]N-methylspiperone, read-out: D4R Ki ± SEM; for D4/D2 / D4/D3: ratio of Ki values
Protocol: Binding at dopamine D2-like receptors was determined using previously described methods. (Chen et al. “Tranylcypromine substituted cis-hydroxycyclobutylnaphthamides as potent and selective dopamine D(3) receptor antagonists.” J. Med. Chem. 2014, 57, 4962-4968) Membranes were prepared from HEK293 cells expressing human D2R, D3R or D4R, grown in a 50:50 mix of DMEM and Ham's F12 culture media, supplemented with 20 mM HEPES, 2 mM L-glutamine, 0.1 mM non-essential amino acids, 1× antibiotic/antimycotic, 10% heat-inactivated fetal bovine serum, and 200 μg/mL hygromycin (Life Technologies, Grand Island, N.Y.) and kept in an incubator at 37° C. and 5% CO2. Upon reaching 80-90% confluence, cells were harvested using pre-mixed Earle's Balanced Salt Solution (EBSS) with […] EDTA (Life Technologies) and centrifuged at 3000 rpm for 10 min at 21° C. The supernatant was removed and the pellet was resuspended in 10 mL hypotonic lysis buffer (5 mM MgCl2.6H2O, 5 mM Tris, pH 7.4 at 4° C.) and centrifuged at 20,000 rpm for 30 min at 4° C. The pellet was then resuspended in fresh EBSS buffer made from 8.7 g/L Earle's Balanced Salts without phenol red (US Biological, Salem, Mass.), 2.2 g/L sodium bicarbonate, pH to 7.4. A Bradford protein assay (Bio-Rad, Hercules, Calif.) was used to determine the protein concentration and membranes were diluted to 500 μg/mL and stored in a −80° C. freezer for later use.
Radioligand competition binding experiments were conducted using thawed membranes. Test compounds were freshly dissolved in 30% DMSO and 70% H2O to a stock concentration of 100 μM. To assist the solubilization of free-base compounds, 10 μl of glacial acetic acid was added along with the DMSO. Each test compound was then diluted into 13 half-log serial dilutions using 30% DMSO vehicle; final test concentrations ranged from 10 μM to 10 pM. Previously frozen membranes were diluted in fresh EBSS to a 100 μg/mL (for hD2R or hD3R) or 200 μg/mL (hD4R) stock for binding. Radioligand competition experiments were conducted in glass tubes containing 300 μl fresh EBSS buffer with 0.2 mM sodium metabisulfite, 50 μl of diluted test compound, 100 μl of membranes (10 μg total protein for hD2R or hD3R, 20 μg total protein for hD4R), and 50 μl of [^3H]N-methylspiperone (0.4 nM final concentration; Perkin Elmer). Nonspecific binding was determined using 10 μM butaclamol (Sigma-Aldrich, St. Louis, Mo.) and total binding was determined with 30% DMSO vehicle. All compound dilutions were tested in triplicate and the reaction incubated for one hour at room temperature. The reaction was terminated by filtration through Whatman GF/B filters, presoaked for one hour in 0.5% polyethylenimine, using a Brandel R48 filtering manifold (Brandel Instruments, Gaithersburg, Md.). The filters were washed 3 times with 3 mL of ice cold EBSS buffer and transferred to scintillation vials. 3 mL CytoScint liquid scintillation cocktail (MP Biomedicals, Solon, Ohio) was added and vials were counted using a Perkin Elmer Tri-Carb 2910 TR liquid scintillation counter (Waltham, Mass.). IC50 values for each compound were determined from dose-response curves and Ki values were calculated using the Cheng-Prusoff equation; these analyses were performed using GraphPad Prism version 5.00 for Windows (GraphPad Software, San Diego, Calif.). Reported Ki values were determined from least three independent experiments.

[1] = Table 1A, HEK 293 cells transfected with hD2LR, [3H]N-methylspiperone
[2] = Table 1A, HEK 293 cells transfected with hD3R, [3H]N-methylspiperone

human D2R, sequence (P14416 whole entry): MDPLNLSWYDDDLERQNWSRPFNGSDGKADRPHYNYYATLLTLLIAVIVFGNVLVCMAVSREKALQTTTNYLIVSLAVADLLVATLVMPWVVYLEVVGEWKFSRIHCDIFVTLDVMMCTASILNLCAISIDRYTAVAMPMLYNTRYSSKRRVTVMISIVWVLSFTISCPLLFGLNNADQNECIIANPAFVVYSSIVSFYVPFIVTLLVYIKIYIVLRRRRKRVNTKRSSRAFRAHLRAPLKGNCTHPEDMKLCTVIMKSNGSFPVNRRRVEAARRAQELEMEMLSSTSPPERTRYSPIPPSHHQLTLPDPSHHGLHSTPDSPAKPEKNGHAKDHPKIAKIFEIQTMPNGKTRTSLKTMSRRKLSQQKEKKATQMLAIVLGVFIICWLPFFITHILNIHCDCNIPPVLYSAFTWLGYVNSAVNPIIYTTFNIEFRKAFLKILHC
human D3R, sequence (P35462 whole entry): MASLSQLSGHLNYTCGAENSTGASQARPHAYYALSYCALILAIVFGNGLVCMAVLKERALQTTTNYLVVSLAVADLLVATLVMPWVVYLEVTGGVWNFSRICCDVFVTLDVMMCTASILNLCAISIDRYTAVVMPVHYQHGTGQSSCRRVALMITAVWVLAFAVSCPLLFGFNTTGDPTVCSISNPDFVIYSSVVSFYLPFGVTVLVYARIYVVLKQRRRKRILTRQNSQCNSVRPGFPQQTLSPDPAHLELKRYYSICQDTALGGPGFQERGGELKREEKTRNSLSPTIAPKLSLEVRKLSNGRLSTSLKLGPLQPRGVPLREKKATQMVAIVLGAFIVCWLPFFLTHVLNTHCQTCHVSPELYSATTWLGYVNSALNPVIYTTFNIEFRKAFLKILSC
human D4R, sequence (P21917 whole entry): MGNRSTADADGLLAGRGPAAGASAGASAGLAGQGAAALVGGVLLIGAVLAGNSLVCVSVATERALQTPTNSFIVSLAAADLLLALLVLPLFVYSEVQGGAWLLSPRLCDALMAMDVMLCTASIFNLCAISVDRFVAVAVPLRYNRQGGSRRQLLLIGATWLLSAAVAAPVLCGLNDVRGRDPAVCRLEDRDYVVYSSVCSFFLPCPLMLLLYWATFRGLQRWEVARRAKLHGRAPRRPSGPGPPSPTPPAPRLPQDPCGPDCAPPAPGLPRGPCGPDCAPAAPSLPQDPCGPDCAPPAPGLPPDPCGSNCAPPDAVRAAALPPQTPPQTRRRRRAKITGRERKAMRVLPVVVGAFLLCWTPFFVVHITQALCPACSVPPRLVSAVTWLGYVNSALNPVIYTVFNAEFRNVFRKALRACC

Row | Structure (SMILES) | Ki (human D2R; [1]) | Ki (human D3R; [2]) | D2/D3 (human D3R; Table 1A) | Ki (human D4R) | D4/D2 (human D4R) | D4/D3 (human D4R) | Ki (human D2R; Table 1C) | D3R selectivity over D2R (D2R/D3R) (human D3R) | D2/D3 (human D3R; Table 1C) | Ki (human D3R; Table 1C)
1 | CCc1cccc(N2CCN(CCCCNC(=O)c3cn4ccccc4n3)CC2)c1Cl [Compound 22, N-(4-(4-(2-chloro-3-ethylphenyl)piperazin-1-yl)butyl)imidazo[1,2-a]pyridine-2-carboxamide] | 0.00564 ± 0.00098 µM | 0.00033 ± 8.5e-05 µM | 17.1 | 0.819 ± 0.175 µM | 145.2 | 2482 |  |  |  | 
2 | CCc1cccc(N2CCN(C/C=C/CNC(=O)c3nc(C)c[nH]3)CC2)c1Cl [Compound 35, (E)-N-(4-(4-(2-Chloro-3-ethylphenyl)piperazin-1-yl)but-2-en-1-yl)-4-methyl-1H-imidazole-2-carboxamide] | 0.0161 ± 0.0012 µM | 0.00128 ± 0.00022 µM | 12.6 | 0.503 ± 0.157 µM | 31.2 | 393 |  |  |  | 
3 | CCc1cccc(N2CCN(CCCCNC(=O)c3nc(C)c[nH]3)CC2)c1Cl [Compound 26, N-(4-(4-(2-Chloro-3-ethylphenyl)piperazin-1-yl)butyl)-4-methyl-1H-imidazole-2-carboxamide] | 0.0122 ± 0.00258 µM | 0.00062 ± 9.6e-05 µM | 19.7 | 0.529 ± 0.0423 µM | 43.4 | 853 |  |  |  | 
4 | CCc1cccc(N2CCN(C[C@@H](F)CCNC(=O)c3cc4ccccc4[nH]3)CC2)c1Cl [(S)-C5a, (S)-N-(4-(4-(2-chloro-3-ethylphenyl)piperazin-1-yl)-3-fluorobutyl)-1H-indole-2-carboxamide] |  |  |  |  |  |  | 0.891 ± 0.305 µM | > 1000 fold | 1060 | 0.00084 µM
5 | CCc1cc2c(cc1N1CCN(CC(O)CCNC(=O)c3cc4ccccc4o3)CC1)OCO2 (stereo not shown) [Compound 122, N-(4-(4-(6-Ethylbenzo[d][1,3]dioxol-5-yl)piperazin-1-yl)-3-hydroxybutyl)benzofuran-2-carboxamide] |  |  |  |  |  |  | 1.44 ± 0.0488 µM |  | 61 | 0.0236 ± 0.00735 µM
6 | CCc1cccc(N2CCN(CC(O)CCNC(=O)c3ccc4c(c3)OCO4)CC2)c1Cl (stereo not shown) [Compound 113b, N-(4-(4-(2-Chloro-3-ethylphenyl)piperazin-1-yl)-3-hydroxybutyl)benzo[d 1,3]dioxole-5-carboxamide] |  |  |  |  |  |  | 0.424 ± 0.0799 µM |  | 140 | 0.00302 ± 0.000742 µM
7 | CCc1cc(Cl)c(OC)c(N2CCN(C[C@H](F)CCNC(=O)c3cc4ccccc4[nH]3)CC2)c1 [(R)-C4a, (R)-N-(4-(4-(3-chloro-5-ethyl-2-methoxyphenyl)piperazin-1-yl)-3-fluorobutyl)-1H-indole-2-carboxamide] |  |  |  |  |  |  | 21.4 ± 1.5 µM | 1650 fold | 1646 | 0.013 ± 0.00294 µM
8 | CCc1cc(Cl)c(OC)c(N2CCN(C[C@@H](F)CCNC(=O)c3cc4ccccc4[nH]3)CC2)c1 [(S)-C4a, (S)-N-(4-(4-(3-chloro-5-ethyl-2-methoxyphenyl)piperazin-1-yl)-3-fluorobutyl)-1H-indole-2-carboxamidec] |  |  |  |  |  |  | 18.9 ± 2.72 µM | 535 fold | 535 | 0.0353 µM
9 | CCc1cccc(N2CCN(CCC(O)CNC(=O)c3cc4ccccc4[nH]3)CC2)c1Cl (stereo not shown) [Compound 40, N-(4-(4-(2-Chloro-3-ethylphenyl)piperazin-1-yl)-2-hydroxybutyl)-1H-indole-2-carboxamide] | 0.00683 ± 0.00053 µM | 0.0002 ± 1.8e-05 µM | 34.2 | 0.305 ± 0.0705 µM | 44.7 | 1525 |  |  |  | 
10 | CCc1c[nH]c(C(=O)NCCCCN2CCN(c3cccc(CC)c3Cl)CC2)n1 [Compound 25, N-(4-(4-(2-Chloro-3-ethylphenyl)piperazin-1-yl)butyl)-4-ethyl-1H-imidazole-2-carboxamide] | 0.0125 ± 0.00107 µM | 0.00114 ± 0.00017 µM | 11.0 | 0.5 ± 0.0309 µM | 40.0 | 439 |  |  |  | 
11 | CCc1cccc(N2CCN(CCCCNC(=O)c3c(C)nc4sccn34)CC2)c1Cl [Compound 24, N-(4-(4-(2-chloro-3-ethylphenyl)piperazin-1-yl)butyl)-6-methylimidazo[2,1-b]thiazole-5-carboxamide] | 0.00465 ± 0.00124 µM | 0.00094 ± 0.00013 µM | 4.9 | 0.143 ± 0.00318 µM | 30.8 | 152 |  |  |  | 
12 | CCc1cccc(N2CCN(CC(O)CCNC(=O)c3cn4ccccc4n3)CC2)c1Cl (stereo not shown) [Compound 23, N-(4-(4-(2-Chloro-3-ethylphenyl)piperazin-1-yl)-3-hydroxybutyl)imidazo[1,2-a]pyridine-2-carboxamide] | 0.193 ± 0.0405 µM | 0.00423 ± 0.00084 µM | 45.6 | 11.3 µM | 58.5 | 2671 |  |  |  | 
13 | CCc1cccc(N2CCN(C[C@H](F)CCNC(=O)c3cc4ccccc4[nH]3)CC2)c1Cl [(R)-C5a, (R)-N-(4-(4-(2-chloro-3-ethylphenyl)piperazin-1-yl)-3-fluorobutyl)-1H-indole-2-carboxamide] |  |  |  |  |  |  | 0.0802 ± 0.0138 µM | 215 fold | 215 | 0.000373 µM
14 | CCc1cccc(N2CCN(CC(O)CCNC(=O)c3nc(C)c[nH]3)CC2)c1Cl (stereo not shown) [Compound 27, N-(4-(4-(2-Chloro-3-ethylphenyl)piperazin-1-yl)-3-hydroxybutyl)-4-methyl-1H-imidazole-2-carboxamide] | 0.15 ± 0.0131 µM | 0.0112 ± 0.00266 µM | 13.4 | 1.96 ± 0.344 µM | 13.1 | 175 |  |  |  | 
15 | CCc1cc(Cl)c(OC)c(N2CCN(CC(O)CCNC(=O)c3ccc4c(c3)OCO4)CC2)c1 (stereo not shown) [Compound 113a, N-(4-(4-(3-Chloro-5-ethyl-2-methoxyphenyl)piperazin-1-yl)-3-hydroxybutyl)benzo[d][1,3]dioxole-5-carboxamide] |  |  |  |  |  |  | 0.364 ± 0.101 µM |  | 15 | 0.0245 ± 0.00444 µM
